Laboratory results from US11542266B1, “Substituted piperidines as BTK inhibitors” (HAISCO PHARMACEUTICALS PTE. LTD., priority 2019, dated 2023).
Counter-ions that a name gives are not always drawn. Like-named read-outs stand apart in the source and are kept apart here.

Columns and labels:
[1] = system: Mino cells; test: Inhibition of cell proliferation, Mino cells (Cell Viability Assay, 72 h); format: cell-based, human
Method: (§1) SU-DHL-4, Mino, and SU-DHL-6 cells, in the culture medium of RPMI1640+10% FBS, were cultured in an incubator at 37° C. under 5% CO2. Cells were plated in a 96-well plate. Specifically, SU-DHL-4 cells were at 20000/well, Mino and SU-DHL-6 cells were at 5000/well, with 90 μL/well. 10 μL of the compounds at different concentrations were added to each well. There were 3 replicate wells for each concentration, and the last column, added with DMSO, was used as a vehicle control group. The cultures were continued for 72 hours at 37° C. under 5% CO2. After 72 hours, 100 μL of detection reagent (Cell Viability Assay, Promega, G7573) was added to each well, and the cultures were uniformly mixed for 2 minutes, and incubated at room temperature for 10 minutes. The fluorescence signal value was measured with a microplate reader (PHERAstar FSX). The IC50 value of the compound on cell proliferation inhibition was calculated using Origin 9.2 software, and the inhibition rate at the highest concentration of the compound (Max inhi. %) was calculated according to formula (1). Max inhi. %=(1-T72 administration/T72 vehicle)×100 Formula (1).

[2] = Pharmacokinetic experiment in rats (i.g. vehicle 0.5% MC); format: in vivo; settings: male SD rats; for AUC(0-t): i.g. 20 mg/kg, vehicle 0.5% MC
Method: Objective: In this experiment, a single dose of each test compound was administered to SD rats intravenously and intragastrically, the concentrations of the test compound in plasma of rats were measured, and the pharmacokinetic characteristics and bioavailability of the test compound in rats were evaluated.
Experimental animals: Male SD rats, 200-250 g, 6-8 weeks old, 6 rats/test compound. The experimental animals were purchased from CHENGDU DOSSY EXPERIMENTAL ANIMALS CO., LTD.
Experimental method: On the day of the experiment, 6 SD rats were randomly grouped according to their body weight. The animals were fasted with water available for 12 to 14 hours one day before the administration of a test compound, and were fed 4 hours after the administration.
Sampling: Before and after the administration, 0.1 ml of blood was taken from the orbit of the rats under isoflurane anesthesia, and placed in an EDTAK2 centrifuge tube. Centrifugation was carried out at 5000 rpm at 4° C. for 10 min and the plasma was collected.
Time points for plasma collection in G1 group: 0, 5 m, 15 m, 30 m, 1 h, 2 h, 4 h, 6 h, 8 h, and 24 h.
Time points for plasma collection in G2 group: 0, 15 m, 30 m, 1 h, 2 h, 4 h, 6 h, 8 h, and 24 h.
Before analysis and detection, all samples were stored at −80° C. The samples were analyzed quantitatively by LC-MS/MS.

[3] = system: SU-DHL-6 cells; test: Inhibition of cell proliferation, SU-DHL-6 cells (Cell Viability Assay, 72 h); format: cell-based; settings: Homo sapiens
Method: as §1

[4] = system: SU-DHL-4 cells; test: Inhibition of cell proliferation, SU-DHL-4 cells (Cell Viability Assay, 72 h); format: cell-based, human; settings: for SU-DHL-4 Max inhi. %: inhibition rate at the highest concentration of the compound; for IC50: Homo sapiens
Method: as §1

[5] = Sprague-Dawley (SD), rat, po, plasma, read-out: AUC0-t

Nc1ncnc2c1c(-c1ccc(Oc3ccccc3)cc1)nn2[C@@H]1CCN(C2CCN(C3CN(c4ccc5c(c4)C(=O)N(C4CCC(=O)NC4=O)C5=O)C3)CC2)C[C@H]1F (relative stereo) [Compound 20-1, trans-5-(3-(4-(4-amino-3-(4-phenoxyphenyl)-1H-pyrazolo[3,4-d]pyrimidin-1-yl)-3-fluoro-[1,4′-bipiperidin]-1′-yl)azetidin-1-yl)-2-(2,6-dioxopiperidin-3-yl)isoindoline-1,3-dione]
IC50 [1]: 32 nM
AUC(0-t) ([2]; plasma): 891 ± 164 ng·h/mL

Nc1ncnc2c1c(-c1ccc(Oc3ccccc3)cc1)nn2C1CCN(C2CCN(C3CN(c4ccc5c(c4)C(=O)N(C4CCC(=O)NC4=O)C5=O)C3)CC2F)CC1 (stereo not drawn) [Compound 49-2, cis-5-(3-(4-(4-amino-3-(4-phenoxyphenyl)-1H-pyrazolo[3,4-d]pyrimidin-1-yl)-3′-fluoro-[1,4′-bipiperidin]-1′-yl)azetidin-1-yl)-2-(2,6-dioxopiperidin-3-yl)isoindoline-1,3-dione-P2]
IC50 [1]: 10 nM
F (%) ([2]; i.g. 20 mg/kg (0.5% MC) vs i.v. 5 mg/kg): 4.14 ± 2.1%
AUC(0-t) ([2]; plasma): 475 ± 237 ng·h/mL

Nc1ncnc2c1c(-c1ccc(Oc3ccccc3)cc1)nn2C1CCN(CC2CN(C3CCN(c4ccc5c(c4)C(=O)N(C4CCC(=O)NC4=O)C5=O)CC3)C2)CC1 (stereo not shown) [Compound 10, 5-(4-(3-((4-(4-amino-3-(4-phenoxyphenyl)-1H-pyrazolo[3,4-d]pyrimidin-1-yl)piperidin-1-yl)methyl)azetidin-1-yl)piperidin-1-yl)-2-(2,6-dioxopiperidin-3-yl)isoindoline-1,3-dione Tetratrifluoroacetate]
IC50 ([1]; Homo sapiens): 405 nM
IC50 [3]: 77 nM

Nc1ncnc2c1c(-c1ccc(Oc3ccccc3)cc1)nn2C1CCN(c2cnc(N3CCC4(CC3)CN(c3ccc5c(c3)C(=O)N(C3CCC(=O)NC3=O)C5=O)C4)nc2)CC1 (stereo not shown) [Compound 5, 5-[7-[5-[4-[4-amino-3-(4-phenoxyphenyl)pyrazolo[3,4-d]pyrimidin-1-yl]-1-piperidyl]pyrimidin-2-yl]-2,7-diazaspiro[3.5]nonan-2-yl]-2-(2,6-dioxo-3-piperidyl)isoindoline-1,3-dione]
AUC(0-t) [2, 5]: 81.7 ± 68 ng·h/mL

Nc1ncnc2c1c(-c1ccc(Oc3ccccc3)cc1)nn2C1CCN(C2CCC(N3CC(Oc4ccc5c(c4)C(=O)N(C4CCC(=O)NC4=O)C5=O)C3)CC2)CC1 (stereo not shown) [Compound 36-b, 5-[1-[4-[4-[4-amino-3-(4-phenoxyphenyl)pyrazolo[3,4-d]pyrimidin-1-yl]-1-piperidyl]cyclohexyl]azetidin-3-yl]oxy-2-(2,6-dioxo-3-piperidyl)isoindoline-1,3-dione trifluoroacetate]
SU-DHL-4 Max inhi. % ([4]; trifluoroacetate): 99.8%

Nc1ncnc2c1c(-c1ccc(Oc3ccccc3)cc1)nn2C1CCN(C2CCC(N3CC(Oc4ccc5c(c4)C(=O)N(C4CCC(=O)NC4=O)C5=O)C3)CC2)CC1 (stereo not shown) [Compound 36-a, 5-[1-[4-[4-[4-amino-3-(4-phenoxyphenyl)pyrazolo[3,4-d]pyrimidin-1-yl]-1-piperidyl]cyclohexyl]azetidin-3-yl]oxy-2-(2,6-dioxo-3-piperidyl)isoindoline-1,3-dione]
SU-DHL-4 Max inhi. % [4]: 99.6%

Nc1ncnc2c1c(-c1ccc(Oc3ccccc3)cc1)nn2C1CCN(c2cnc(N3CC4CN(c5ccc6c(c5)C(=O)N(C5CCC(=O)NC5=O)C6=O)CC4C3)nc2)CC1 (stereo not shown) [Compound 3, 5-[5-[5-[4-[4-amino-3-(4-phenoxyphenyl)pyrazolo[3,4-d]pyrimidin-1-yl]-1-piperidyl]pyrimidin-2-yl]-1,3,3a,4,6,6a-hexahydropyrrolo[3,4-c]pyrrol-2-yl]-2-(2,6-dioxo-3-piperidyl)isoindoline-1,3-dione tetratrifluoroacetate]
AUC(0-t) [2, 5]: 211 ± 46 ng·h/mL

Nc1ncnc2c1c(-c1ccc(Oc3ccccc3)cc1)nn2C1CCN(C2CN(C3CN(c4ccc5c(c4)C(=O)N(C4CCC(=O)NC4=O)C5=O)C3)C2)CC1F (stereo not drawn) [Compound 19, trans-5-(3-(4-(4-amino-3-(4-phenoxyphenyl)-1H-pyrazolo[3,4-d]pyrimidin-1-yl)-3-fluoropiperidin-1-yl)-[1,3′-biazetidin]-1′-yl)-2-(2,6-dioxopiperidin-3-yl)isoindoline-1,3-dione trifluoroacetate]
IC50 ([1]; Homo sapiens): 48 nM
IC50 [3]: 782 nM

Nc1ncnc2c1c(-c1ccc(Oc3ccccc3)cc1)nn2C1CCN(C2CCN(C3CCN(C4CCN(C5CCN(c6ccc7c(c6)C(=O)N(C6CCC(=O)NC6=O)C7=O)CC5)CC4)CC3)CC2)CC1 (stereo not shown) [Compound 14, 5-[4-[4-[4-[4-[4-[4-amino-3-(4-phenoxyphenyl)pyrazolo[3,4-d]pyrimidin-1-yl]-1-piperidyl]-1-piperidyl]-1-piperidyl]-1-piperidyl]-1-piperidyl]-2-(2,6-dioxo-3-piperidyl)isoindoline-1,3-dione Hexatrifluoroacetate]
IC50 [4]: 60 nM
IC50 [3]: 86 nM

Nc1ncnc2c1c(-c1ccc(Oc3ccccc3)cc1)nn2C1CCN(C2CN(C3CCN(C4CCN(C5CN(c6ccc7c(c6)C(=O)N(C6CCC(=O)NC6=O)C7=O)C5)CC4)CC3)C2)CC1 (stereo not shown) [Compound 13, 5-[3-[4-[4-[3-[4-[4-amino-3-(4-phenoxyphenyl)pyrazolo[3,4-d]pyrimidin-1-yl]-1-piperidyl]azetidin-1-yl]-1-piperidyl]-1-piperidyl]azetidin-1-yl]-2-(2,6-dioxo-3-piperidyl)isoindoline-1,3-dione]
IC50 ([1]; Homo sapiens): 677 nM
IC50 [4]: 70 nM

Nc1ncnc2c1c(-c1ccc(Oc3ccccc3)cc1)nn2C1CCN(C2CN(C3CCC(Oc4ccc5c(c4)C(=O)N(C4CCC(=O)NC4=O)C5=O)CC3)C2)CC1 (stereo not shown) [Compound 37, 5-[4-[3-[4-[4-amino-3-(4-phenoxyphenyl)pyrazolo[3,4-d]pyrimidin-1-yl]-1-piperidyl]azetidin-1-yl]cyclohexoxy]-2-(2,6-dioxo-3-piperidyl)isoindoline-1,3-dione]
IC50 [4]: 631 nM
AUC(0-t) [2, 5]: 473 ± 105 ng·h/mL

Nc1ncnc2c1c(-c1ccc(Oc3ccccc3)cc1)nn2C1CCN(C2CC3(CCN(c4ccc5c(c4)C(=O)N(C4CCC(=O)NC4=O)C5=O)CC3)C2)CC1 (stereo not shown) [Compound 1, 5-[2-[4-[4-amino-3-(4-phenoxyphenyl)pyrazolo[3,4-d]pyrimidin-1-yl]-1-piperidyl]-7-azaspiro[3.5]nonan-7-yl]-2-(2,6-dioxo-3-piperidyl)isoindoline-1,3-dione]
AUC(0-t) [2, 5]: 479 ± 197 ng·h/mL

Nc1ncnc2c1c(-c1ccc(Oc3ccccc3)cc1)nn2C1CCN(C2CN(C3CN(c4cc5c(cc4F)C(=O)N(C4CCC(=O)NC4=O)C5=O)C3)C2)CC1 (stereo not shown) [Compound 21, 5-(3-(4-(4-amino-3-(4-phenoxyphenyl)-1H-pyrazolo[3,4-d]pyrimidin-1-yl)piperidin-1-yl)-[1,3′-biazetidin]-1′-yl)-2-(2,6-dioxopiperidin-3-yl)-6-fluoroisoindoline-1,3-dione]
bioavailability ([2]; Sprague-Dawley (SD), rat, plasma, po, i.g. 20 mg/kg (0.5% MC) vs i.v. 5 mg/kg): 12.4 ± 3.8%
AUC(0-t) [2, 5]: 3200 ± 973 ng·h/mL

Nc1ncnc2c1c(-c1ccc(Oc3ccccc3)cc1)nn2C1CCN(Cc2cnc(N3CC4(CCN(c5ccc6c(c5)C(=O)N(C5CCC(=O)NC5=O)C6=O)CC4)C3)nc2)CC1 (stereo not shown) [Compound 7, 5-[2-[5-[[4-[4-amino-3-(4-phenoxyphenyl)pyrazolo[3,4-d]pyrimidin-1-yl]-1-piperidyl]methyl]pyrimidin-2-yl]-2,7-diazaspiro[3.5]nonan-7-yl]-2-(2,6-dioxo-3-piperidyl)isoindoline-1,3-dione tritrifluoroacetate]
AUC(0-t) [2, 5]: 105 ± 54 ng·h/mL

Nc1ncnc2c1c(-c1ccc(Oc3ccccc3)cc1)nn2[C@@H]1CCCN(C2CCC(N3CC(Oc4ccc5c(c4)C(=O)N(C4CCC(=O)NC4=O)C5=O)C3)CC2)C1 (single isomer, unassigned) [Compound 34-a]
SU-DHL-4 Max inhi. % [4]: 94.4%

Nc1ncnc2c1c(-c1ccc(Oc3ccccc3)cc1)nn2C1CCN(c2cnc(N3CC4(CCN(c5ccc6c(c5)C(=O)N(C5CCC(=O)NC5=O)C6=O)CC4)C3)nc2)CC1 (stereo not shown) [Compound 4, 5-[2-[5-[4-[4-amino-3-(4-phenoxyphenyl)pyrazolo[3,4-d]pyrimidin-1-yl]-1-piperidyl]pyrimidin-2-yl]-2,7-diazaspiro[3.5]nonan-7-yl]-2-(2,6-dioxo-3-piperidyl)isoindoline-1,3-dione]
AUC(0-t) [2, 5]: 36 ± 10 ng·h/mL
